From patent US12091411B2, “IRAK degraders and uses thereof” (Kymera Therapeutics, Inc., priority 2022, dated 2024)
Where two headings read alike, the source gives them in different places.

Biological target: T1, IRAK4 (Homo sapiens, UniProt Q9NWZ3)
T1 construct: Degradation of IRAK4 in OCI-LY10 was quantitatively measured using Meso Scale Discovery technology; endogenous in cells; host or cells: OCI-LY10
T1 sequence (Q9NWZ3 1-460): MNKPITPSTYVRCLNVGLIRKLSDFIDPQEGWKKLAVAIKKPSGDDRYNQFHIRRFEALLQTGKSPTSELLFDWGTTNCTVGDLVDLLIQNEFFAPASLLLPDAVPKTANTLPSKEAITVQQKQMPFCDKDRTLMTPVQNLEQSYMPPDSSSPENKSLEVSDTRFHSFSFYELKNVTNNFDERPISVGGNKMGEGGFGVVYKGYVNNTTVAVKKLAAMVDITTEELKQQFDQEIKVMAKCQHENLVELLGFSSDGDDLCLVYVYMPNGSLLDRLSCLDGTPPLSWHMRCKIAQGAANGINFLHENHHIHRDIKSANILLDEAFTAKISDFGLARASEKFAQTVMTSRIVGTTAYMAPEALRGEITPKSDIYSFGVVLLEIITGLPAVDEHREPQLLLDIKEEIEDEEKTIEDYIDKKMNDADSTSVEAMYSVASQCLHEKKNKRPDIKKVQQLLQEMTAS
Experiment: IRAK4 MSD Degradation in OCI-LY10
Type: cell-based
Settings: OCI-LY10 cells, MSD
Outline: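 OCI-LY10 cells exposed to 8-point 1:3 compound series (top 1 to 10 μM) for 4 to 24 h at 37 °C, 5% CO2. Lysate IRAK4 quantified by MSD sandwich immunoassay. DC50 from three-parameter logistic fit, binned A (<0.01 μM) to D (>0.2 μM or not tested).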

[1] = 4 hrs incubation, read-out: IRAK4 degradation in OCI-LY10 at 4 hrs: DC50
[2] = 24 hrs incubation, read-out: IRAK4 degradation in OCI-LY10 at 24 hrs: DC50

Row | Structure (SMILES) | DC50 [1] [nM] | DC50 [2] [nM]
1 | CN(C[C@H]1CC[C@H](n2cc(NC(=O)c3cnn4ccc(N5C6CCC5COC6)nc34)c(C(F)F)n2)CC1)C1CCN(c2cccc3c2n(C)c(=O)n3C2CCC(=O)NC2=O)CC1(F)F (stereo partly shown) [I-527] | > 200 | 10 to 100
2 | C[C@H]1CN(c2ccn3ncc(C(=O)Nc4cn([C@H]5CC[C@H](CN(C)C6CCN(c7cccc8c7n(C)c(=O)n8C7CCC(=O)NC7=O)CC6(F)F)CC5)nc4C(F)F)c3n2)CCO1 (stereo partly shown) [I-528] | > 200 | 10 to 100
3 | C[C@@H]1CN(c2ccn3ncc(C(=O)Nc4cn([C@H]5CC[C@H](CN(C)C6CCN(c7cccc8c7n(C)c(=O)n8C7CCC(=O)NC7=O)CC6(F)F)CC5)nc4C(F)F)c3n2)CCO1 (stereo partly shown) [I-529] | > 200 | 10 to 100
4 | CN(C[C@H]1CC[C@H](n2cc(NC(=O)c3cnn4ccc(N5CCOC(C)(C)C5)nc34)c(C(F)F)n2)CC1)C1CCN(c2cccc3c2n(C)c(=O)n3C2CCC(=O)NC2=O)CC1(F)F (stereo partly shown) [I-530] | > 200 | 10 to 100
5 | CN(C[C@H]1CC[C@H](n2cc(NC(=O)c3cnn4ccc(N5CC(C)(C)OC(C)(C)C5)nc34)c(C(F)F)n2)CC1)C1CCN(c2cccc3c2n(C)c(=O)n3C2CCC(=O)NC2=O)CC1(F)F (stereo partly shown) [I-531] | > 200 | > 200
6 | C[C@@H]1CN(c2ccn3ncc(C(=O)Nc4cn([C@H]5CC[C@H](CN(C)C6CCN(c7cccc8c7n(C)c(=O)n8C7CCC(=O)NC7=O)CC6(F)F)CC5)nc4C(F)F)c3n2)C[C@H](C)O1 (stereo partly shown) [I-532] | > 200 | > 200
7 | C[C@H]1CN(c2ccn3ncc(C(=O)Nc4cn([C@H]5CC[C@H](CN(C)C6CCN(c7cccc8c7n(C)c(=O)n8C7CCC(=O)NC7=O)CC6(F)F)CC5)nc4C(F)F)c3n2)C[C@H](C)O1 (stereo partly shown) [I-533] | > 200 | > 200
8 | CN(C[C@H]1CC[C@H](n2cc(NC(=O)c3cnn4ccc(N5CCO[C@@H](C(F)F)C5)nc34)c(C(F)F)n2)CC1)C1CCN(c2cccc3c2n(C)c(=O)n3C2CCC(=O)NC2=O)CC1(F)F (stereo partly shown) [I-535] | > 200 | > 200
9 | CN(C[C@H]1CC[C@H](n2cc(NC(=O)c3cnn4ccc(N5CCO[C@H](C(F)F)C5)nc34)c(C(F)F)n2)CC1)C1CCN(c2cccc3c2n(C)c(=O)n3C2CCC(=O)NC2=O)CC1(F)F (stereo partly shown) [I-536] | > 200 | > 200
10 | CN(C[C@H]1CC[C@H](n2cc(NC(=O)c3cnn4ccc(N5CCO[C@@H](C(F)(F)F)C5)nc34)c(C(F)F)n2)CC1)C1CCN(c2cccc3c2n(C)c(=O)n3C2CCC(=O)NC2=O)CC1(F)F (stereo partly shown) [I-537] | > 200 | > 200
11 | CN(C[C@H]1CC[C@H](n2cc(NC(=O)c3cnn4ccc(N5CCO[C@H](C(F)(F)F)C5)nc34)c(C(F)F)n2)CC1)C1CCN(c2cccc3c2n(C)c(=O)n3C2CCC(=O)NC2=O)CC1(F)F (stereo partly shown) [I-538] | > 200 | > 200
12 | CN(C[C@H]1CC[C@H](n2cc(NC(=O)c3cnn4ccc(N5CCOC6(CC6)C5)nc34)c(C(F)F)n2)CC1)C1CCN(c2cccc3c2n(C)c(=O)n3C2CCC(=O)NC2=O)CC1(F)F (stereo partly shown) [I-539] | > 200 | > 200
13 | CN(C[C@H]1CC[C@H](n2cc(NC(=O)c3cnn4ccc(N5CCOC6(CCC6)C5)nc34)c(C(F)F)n2)CC1)C1CCN(c2cccc3c2n(C)c(=O)n3C2CCC(=O)NC2=O)CC1(F)F (stereo partly shown) [I-540] | > 200 | > 200
14 | CN(C[C@H]1CC[C@H](n2cc(NC(=O)c3cnn4ccc(N5CCSCC5)nc34)c(C(F)F)n2)CC1)C1CCN(c2cccc3c2n(C)c(=O)n3C2CCC(=O)NC2=O)CC1(F)F (stereo partly shown) [I-541] | > 200 | > 200
15 | CN(C[C@H]1CC[C@H](n2cc(NC(=O)c3cnn4ccc(N5CCS(=O)(=O)CC5)nc34)c(C(F)F)n2)CC1)C1CCN(c2cccc3c2n(C)c(=O)n3C2CCC(=O)NC2=O)CC1(F)F (stereo partly shown) [I-542] | > 200 | > 200
16 | CN(C[C@H]1CC[C@H](n2cc(NC(=O)c3cnn4ccc(N5CCCCCC5)nc34)c(C(F)F)n2)CC1)C1CCN(c2cccc3c2n(C)c(=O)n3C2CCC(=O)NC2=O)CC1(F)F (stereo partly shown) [I-543] | > 200 | > 200
17 | CN(C[C@H]1CC[C@H](n2cc(NC(=O)c3cnn4ccc(N5CCCOCC5)nc34)c(C(F)F)n2)CC1)C1CCN(c2cccc3c2n(C)c(=O)n3C2CCC(=O)NC2=O)CC1(F)F (stereo partly shown) [I-544] | > 200 | 10 to 100
18 | Cn1c(=O)n(C2CCC(=O)NC2=O)c2cccc(C3CCN(C[C@H]4CC[C@H](n5cc6cc(NC(=O)c7cccc(C(F)(F)F)n7)c(C(F)F)cc6n5)CC4)CC3F)c21 (stereo partly shown) [I-545] | > 200 | < 10
19 | COc1ccc2c(c1C1CCN(C[C@H]3CC[C@H](n4cc5cc(NC(=O)c6cccc(C(F)(F)F)n6)ncc5n4)CC3)CC1F)n(C)c(=O)n2C1CCC(=O)NC1=O (stereo partly shown) [I-546] | > 200 | > 200

Row | Structure (SMILES) | DC50 [1] [nM] | DC50 [2] [nM]
20 | COc1cc2nn([C@H]3CC[C@H](CN4CCC(c5cccc6c5n(C)c(=O)n6C5CCC(=O)NC5=O)C(F)C4)CC3)cc2cc1NC(=O)c1cccc(C(F)(F)F)n1 (stereo partly shown) [I-547] | > 200 | < 10
21 | Cn1c(=O)n(C2CCC(=O)NC2=O)c2cccc(C3CCN(C[C@H]4CC[C@H](n5cc6cc(NC(=O)c7cccc(C(F)(F)F)n7)c(C#N)cc6n5)CC4)CC3F)c21 (stereo partly shown) [I-548] | > 200 | < 10
22 | Cn1c(=O)n(C2CCC(=O)NC2=O)c2cccc(C3CCN(C[C@H]4CC[C@H](n5cc6cc(NC(=O)c7cccc(C(F)(F)F)n7)ncc6n5)CC4)CC3F)c21 (stereo partly shown) [I-549] | > 200 | < 10
23 | Cc1cc2nn([C@H]3CC[C@H](CN4CCC(c5cccc6c5n(C)c(=O)n6C5CCC(=O)NC5=O)C(F)C4)CC3)cc2cc1NC(=O)c1cccc(C(F)(F)F)n1 (stereo partly shown) [I-550] | > 200 | < 10
24 | COc1ccc2c(c1C1CCN(C[C@H]3CC[C@H](n4cc5cc(NC(=O)c6cccc(C(F)(F)F)n6)ccc5n4)CC3)CC1F)n(C)c(=O)n2C1CCC(=O)NC1=O (stereo partly shown) [I-551] | > 200 | > 200
25 | Cn1c(=O)n(C2CCC(=O)NC2=O)c2cccc(C3CCN(C[C@H]4CC[C@H](n5cc6cc(NC(=O)c7cccc(C(F)(F)F)n7)c(Cl)cc6n5)CC4)CC3F)c21 (stereo partly shown) [I-552] | > 200 | 10 to 100
26 | Cn1c(=O)n(C2CCC(=O)NC2=O)c2cccc(C3CCN(C[C@H]4CC[C@H](n5cc6cc(NC(=O)c7cccc(C(F)(F)F)n7)ccc6n5)CC4)CC3F)c21 (stereo partly shown) [I-553] | > 200 | < 10
27 | Cn1c(=O)n(C2CCC(=O)NC2=O)c2cccc(C3CCN(C[C@H]4CC[C@H](n5cc6cc(NC(=O)c7cccc(C(F)(F)F)n7)c(F)cc6n5)CC4)CC3F)c21 (stereo partly shown) [I-554] | > 200 | 10 to 100
28 | CN(C[C@H]1CC[C@H](n2cc3cc(NC(=O)c4cccc(C(F)(F)F)n4)ccc3n2)CC1)C1CCN(c2cccc3c2n(C)c(=O)n3C2CCC(=O)NC2=O)CC1F (stereo partly shown) [I-555] | > 200 | 10 to 100
29 | COc1cc2nn([C@H]3CC[C@H](CN(C)C4CCN(c5cccc6c5n(C)c(=O)n6C5CCC(=O)NC5=O)CC4F)CC3)cc2cc1NC(=O)c1cccc(C(F)(F)F)n1 (stereo partly shown) [I-556] | > 200 | > 200
30 | CN(C[C@H]1CC[C@H](n2cc3cc(NC(=O)c4cccc(C(F)(F)F)n4)c(C(F)F)cc3n2)CC1)C1CCN(c2cccc3c2n(C)c(=O)n3C2CCC(=O)NC2=O)CC1F (stereo partly shown) [I-557] | > 200 | > 200
31 | CN(C[C@H]1CC[C@H](n2cc3cc(NC(=O)c4cccc(C(F)(F)F)n4)c(C#N)cc3n2)CC1)C1CCN(c2cccc3c2n(C)c(=O)n3C2CCC(=O)NC2=O)CC1F (stereo partly shown) [I-558] | > 200 | > 200
32 | CN(C[C@H]1CC[C@H](n2cc3cc(NC(=O)c4cccc(C(F)(F)F)n4)c(S(C)(=O)=O)cc3n2)CC1)C1CCN(c2cccc3c2n(C)c(=O)n3C2CCC(=O)NC2=O)CC1F (stereo partly shown) [I-559] | > 200 | > 200
33 | CN(C[C@H]1CC[C@H](n2cc3cc(NC(=O)c4cccc(C(F)(F)F)n4)c(S(C)(=N)=O)cc3n2)CC1)C1CCN(c2cccc3c2n(C)c(=O)n3C2CCC(=O)NC2=O)CC1F (stereo partly shown) [I-560] | > 200 | > 200
34 | CN(C[C@H]1CC[C@H](n2cc3cc(NC(=O)c4cccc(C(F)(F)F)n4)c([S+](C)[O-])cc3n2)CC1)C1CCN(c2cccc3c2n(C)c(=O)n3C2CCC(=O)NC2=O)CC1F (stereo partly shown) [I-561] | > 200 | > 200
35 | COc1ccc2c(c1N1CCC(N(C)C[C@H]3CC[C@H](n4cc(NC(=O)c5cnn6cccnc56)c(C(F)F)n4)CC3)C(F)C1)n(C)c(=O)n2C1CCC(=O)NC1=O (stereo partly shown) [I-563] | > 200 | > 200
36 | Cn1c(=O)n(C2CCC(=O)NC2=O)c2cccc(N3CC(F)(F)C34CN(C[C@H]3CC[C@H](n5cc6cc(NC(=O)c7cccc(C(F)(F)F)n7)c(C#N)cc6n5)CC3)C4)c21 (stereo partly shown) [I-564] | > 200 | > 200
37 | Cn1c(=O)n(C2CCC(=O)NC2=O)c2cccc(N3CC4(C3)N(C[C@H]3CC[C@H](n5cc6cc(NC(=O)c7cccc(C(F)(F)F)n7)c(C#N)cc6n5)CC3)CC4(F)F)c21 (stereo partly shown) [I-565] | > 200 | > 200
38 | Cn1c(=O)n(C2CCC(=O)NC2=O)c2cccc(N3CCC(N4CC5(CCC(n6cc7cc(NC(=O)c8cccc(C(F)(F)F)n8)c(C#N)cc7n6)CC5)C4)C(F)(F)C3)c21 (stereo not shown) [I-566] | > 200 | > 200
